The compound `CS(=O)(=O)c1ccc(-c2ccccc2-c2ccc(F)cc2)cc1` [Example 1, 1-(4-Fluorophenyl)-2-[4-(methylsulfonyl)phenyl]benzene] gave a melting point of 178 to 179 °C. On to `NS(=O)(=O)c1ccc(-c2ccccc2-c2ccc(F)cc2)cc1` [Example 2, 4-[2-(4-Fluorophenyl)phenyl]benzenesulfonamide], for which the melting point is 187.3 to 188.2 °C. On to `NS(=O)(=O)c1ccc(-c2ccccc2-c2ccc(Cl)cc2)cc1` [Example 3, 4-[2-(4-Chlorophenyl)phenyl]benzenesulfonamide], for which the melting point was in the range of 206.2 to 207 °C.

For the compound `COc1ccc(-c2ccccc2-c2ccc(S(C)(=O)=O)cc2)cc1F` [Example 4, 2-Fluoro-1-methoxy-4-[2-[4-(methylsulfonyl)phenyl]phenyl]benzene], the melting point lay within 136.2 to 136.6 °C. The value for `COc1ccc(-c2ccccc2-c2ccc(S(C)(=O)=O)cc2)cc1Cl` [Example 5, 2-Chloro-1-methoxy-4-[2-[4-(methylsulfonyl)phenyl]phenyl]benzene] was 161.5 to 162.3 °C; that for `COc1ccc(-c2ccccc2-c2ccc(S(N)(=O)=O)cc2)cc1F` [Example 6, 4-[2-(3-Fluoro-4-methoxyphenyl)phenyl]benzenesulfonamide] was 143.5 to 145.5 °C (dec.); that for `COc1ccc(-c2ccccc2-c2ccc(S(N)(=O)=O)cc2)cc1Cl` [Example 7, 4-[2-(3-Chloro-4-methoxyphenyl)phenyl]benzenesulfonamide] was 179.5 to 180.2 °C. To `CS(=O)(=O)c1ccc(-c2ccccc2-c2ccc(Cl)cc2)cc1` [Example 8, 1-(4-Chlorophenyl)-2-[4-(methylsulfonyl)phenyl]benzene] belongs 180.2 to 180.6 °C; to `NS(=O)(=O)c1ccc(-c2ccccc2-c2ccc(C(F)(F)F)cc2)cc1` [Example 9, 4-[2-[4-(Trifluoromethyl)phenyl]phenyl]benzenesulfonamide], 187.5 to 187.8 °C; to `CS(=O)(=O)c1ccc(-c2ccccc2-c2ccc(F)c(Cl)c2)cc1` [Example 10, 2-Chloro-1-fluoro-4-[2-[4-(methylsulfonyl)phenyl]phenyl]benzene], 179.5 to 181.1 °C.

Consider `CS(=O)(=O)c1ccc(-c2cc(F)c(F)cc2-c2ccc(F)cc2)cc1` [Example 11, 1,2-Difluoro-4-(4-fluorophenyl)-5-[4-(methylsulfonyl)phenyl]benzene], for which the melting point lay in the range of 172.8 to 173.5 °C. To `NS(=O)(=O)c1ccc(-c2ccccc2-c2ccc(F)c(Cl)c2)cc1` [Example 12, 4-[2-(3-Chloro-4-fluorophenyl)phenyl]benzenesulfonamide] belongs 192.5 to 193.2 °C. The value for `NS(=O)(=O)c1ccc(-c2cc(F)c(F)cc2-c2ccc(F)cc2)cc1` [Example 13, 4-[3,4-Difluoro-6-(4-fluorophenyl)phenyl]benzenesulfonamide] was 190.2 to 191.5 °C; that for `CS(=O)(=O)c1ccc(-c2cc(F)c(F)cc2-c2ccc(F)c(Cl)c2)cc1` [Example 14, 1-(3-Chloro-4-fluorophenyl)-4,5-difluoro-2-[4-(methylsulfonyl)phenyl]benzene] was 172.2 to 172.5 °C. The value for `NS(=O)(=O)c1ccc(-c2c(F)c(F)c(F)c(F)c2-c2ccc(F)cc2)cc1` [Example 15, 4-[2,3,4,5-Tetrafluoro-6-(4-fluorophenyl)phenyl]benzenesulfonamide] was 202 to 203 °C; that for `NS(=O)(=O)c1ccc(-c2cc(F)c(F)cc2-c2ccc(F)c(Cl)c2)cc1` [Example 16, 4-[2-(3-Chloro-4-fluorophenyl)-4,5-difluorophenyl]benzenesulfonamide] was 162.5 to 162.8 °C. Turning to `CS(=O)(=O)c1ccc(-c2cc3c(cc2-c2ccc(F)cc2)OCO3)cc1` [Example 17, 5-(4-Fluorophenyl)-6-[4-(methylsulfonyl)phenyl]-1,3-benzodioxole], the melting point is 173 to 174 °C.

Regarding `COc1ccc(-c2cc(F)c(F)cc2-c2ccc(S(C)(=O)=O)cc2)cc1Cl` [Example 18, 1-(3-Chloro-4-methoxyphenyl)-4,5-difluoro-2-[4-(methylsulfonyl)phenyl]benzene], the melting point lay within 147.5 to 148.5 °C. The value for `COc1ccc(-c2cc(F)c(F)cc2-c2ccc(S(C)(=O)=O)cc2)cc1F` [Example 19, 1,2-Difluoro-4-(3-fluoro-4-methoxyphenyl)-5-[4-(methylsulfonyl)phenyl]benzene] was 159.2 to 159.7 °C. To `COc1ccc(-c2cc(F)c(F)cc2-c2ccc(S(N)(=O)=O)cc2)cc1Cl` [Example 20, 4-[2-(3-Chloro-4-methoxyphenyl)-4,5-difluorophenyl]benzenesulfonamide] belongs 70 °C (dec.); to `COc1ccc(-c2cc(F)c(F)cc2-c2ccc(S(N)(=O)=O)cc2)cc1F` [Example 21, 4-[4,5-Difluoro-2-(3-fluoro-4-methoxyphenyl)phenyl]benzenesulfonamide], 132.2 to 132.8 °C; to `NS(=O)(=O)c1ccc(-c2cc3c(cc2-c2ccc(F)cc2)OCO3)cc1` [Example 22, 4-[6-(4-Fluorophenyl)-1,3-benzodioxol-5-yl]benzenesulfonamide], 191 to 192.5 °C.

`Cc1ccc(-c2cc(F)c(F)cc2-c2ccc(S(C)(=O)=O)cc2)cc1` [Example 23, 1,2-Difluoro-4-(4-methylphenyl)-5-[4-(methylsulfonyl)phenyl]benzene] registered a melting point of 147 to 148 °C. The compound `CS(=O)(=O)c1ccc(-c2cc(F)c(F)cc2-c2ccc3c(c2)OCO3)cc1` [Example 24, 5-[4,5-Difluoro-2-[4-(methylsulfonyl)phenyl]phenyl]-1,3-benzodioxole] had a melting point of 110 to 111 °C. To `Cc1ccc(-c2cc(F)c(F)cc2-c2ccc(S(N)(=O)=O)cc2)cc1` [Example 25, 4-[4,5-Difluoro-2-(4-methylphenyl)phenyl]benzenesulfonamide] belongs 103 to 104 °C. To `NS(=O)(=O)c1ccc(-c2cc(F)c(F)cc2-c2ccc3c(c2)OCO3)cc1` [Example 26, 4-[2-(1,3-Benzodioxol-5-yl)-4,5-difluorophenyl]benzenesulfonamide] belongs 142 to 143 °C.

Turning to `Cc1ccc(-c2cc(F)c(F)cc2-c2ccc(S(C)(=O)=O)cc2)cc1Cl` [Example 27, 1-(3-Chloro-4-methylphenyl)-4,5-difluoro-2-[4-(methylsulfonyl)phenyl]benzene], the melting point is 138 to 139 °C.

`CN(C)c1ccc(-c2cc(F)c(F)cc2-c2ccc(S(C)(=O)=O)cc2)cc1Cl` [Example 28, 2-Chloro-4-[4,5-difluoro-2-[4-(methylsulfonyl)phenyl]phenyl]-N,N-dimethylbenzenamine] yielded a melting point of 129 to 130 °C. In turn, `Cc1ccc(-c2cc(F)c(F)cc2-c2ccc(S(N)(=O)=O)cc2)cc1Cl` [Example 29, 4-[2-(3-Chloro-4-methylphenyl)-4,5-difluorophenyl]benzenesulfonamide] yielded a melting point of 139 to 140 °C. The compound `CN(C)c1ccc(-c2cc(F)c(F)cc2-c2ccc(S(N)(=O)=O)cc2)cc1Cl` [Example 30, 4-[2-[3-Chloro-4-(N,N-dimethylamino)phenyl]-4,5-difluorophenyl]benzenesulfonamide] came in with a melting point of 193 to 194 °C. `Cc1cc(-c2cc(F)c(F)cc2-c2ccc(S(C)(=O)=O)cc2)ccc1F` [Example 31, 1,2-Difluoro-4-(4-fluoro-3-methylphenyl)-5-[4-(methylsulfonyl)phenyl]benzene]: the melting point was in the range of 167.2 to 167.5 °C.

As to `Cc1cc(-c2cc(F)c(F)cc2-c2ccc(S(C)(=O)=O)cc2)ccc1Cl` [Example 32, 4-(4-Chloro-3-methylphenyl)-1,2-difluoro-5-[4-(methylsulfonyl)phenyl]benzene], the melting point lay within 151.5 to 152.2 °C. The value for `Cc1ccc(-c2cc(F)c(F)cc2-c2ccc(S(C)(=O)=O)cc2)cc1C` [Example 33, 1,2-Difluoro-4-(3,4-dimethylphenyl)-5-[4-(methylsulfonyl)phenyl]benzene] was 125.1 to 125.8 °C; that for `Cc1cc(-c2cc(F)c(F)cc2-c2ccc(S(N)(=O)=O)cc2)ccc1F` [Example 34, 4-[4,5-Difluoro-2-(4-fluoro-3-methylphenyl)phenyl)benzenesulfonamide] was 151.5 to 152 °C. `COc1ccc(-c2cc(F)c(F)cc2-c2ccc(S(C)(=O)=O)cc2)cc1C` [Example 35, 1,2-Difluoro-4-(4-methoxy-3-methylpheny)-5-[4-(methylsulfonyl)phenyl]benzene]: the melting point was 160.5 to 161.5 °C. The value for `Cc1cc(-c2cc(F)c(F)cc2-c2ccc(S(N)(=O)=O)cc2)ccc1Cl` [Example 36, 4-[2-(4-Chloro-3-methylphenyl)-4,5-difluorophenyl]benzenesulfonamide] was 141.5 to 142.8 °C; that for `Cc1ccc(-c2cc(F)c(F)cc2-c2ccc(S(N)(=O)=O)cc2)cc1C` [Example 37, 4-[4,5-Difluoro-2-(3,4-dimethylphenyl)phenyl]benzenesulfonamide] was 132.8 to 133.9 °C. To `COc1c(Cl)cc(-c2cc(F)c(F)cc2-c2ccc(S(N)(=O)=O)cc2)cc1Cl` [Example 38, 4-[2-(3,5-Dichloro-4-methoxyphenyl)-4,5-difluorophenyl]benzenesulfonamide] belongs 145.5 to 146 °C; to `COc1ccc(-c2cc(F)c(F)cc2-c2ccc(S(N)(=O)=O)cc2)cc1C` [Example 39, 4-[4,5-Difluoro-2-(4-methoxy-3-methylphenyl)phenyl]benzenesulfonamide], 120 to 121.8 °C; to `COc1ccc(-c2cc(F)c(F)cc2-c2ccc(S(C)(=O)=O)cc2)cc1OC` [Example 40, 1,2-Difluoro-4-(3,4-dimethoxypheny)-5-[4-(methylsulfonyl)phenyl]benzene], 140 to 141 °C. Compound `CS(=O)(=O)c1ccc(-c2cc(F)c(F)cc2-c2ccc3c(c2)OCCO3)cc1` [Example 41] came in with a melting point of 82 to 83 °C. To `COc1ccc(-c2cc(F)c(F)cc2-c2ccc(S(N)(=O)=O)cc2)cc1OC` [Example 42, 4-[4,5-Difluoro-2-(3,4-dimethoxyphenyl)phenyl]benzenesulfonamide] belongs 157 to 158 °C.

Values taken from patent US6677488B2, “Substituted biphenyl compounds for the treatment of inflammation” (G.D. Searle & Co., priority 1995, dated 2004).
